Assay results: paper PMC5352699, “Synthesis and in vitro antitumor activity of (1E,4E)-1-aryl-5-(2-((quinazolin-4-yl)oxy)phenyl)-1,4-pentadien-3-one derivatives” (Chemistry Central Journal, 2017)

How the values were obtained:
[1] = tested on: human breast cancer cell line Bcap-37; assay: MTT assay, Bcap-37 cells; type: cell-based
Description: (§1) The in vitro antitumor activity of the newly synthesized compounds 5a–5n were evaluated against a panel of three human cancer cell lines, including human gastric cancer cell line MGC-803, human prostate cancer cell line PC3, and human breast cancer cell line Bcap-37, and one normal cell line NIH3T3 (mouse embryo fibroblast cell line) by MTT method. Adriamycin (ADM) was chosen as a reference drug due to its availability and widespread use. Each experiment was repeated at least three times.
(§2) Human gastric cancer cell line MGC-803, human prostate cancer cell line PC3, and human breast cancer cell line Bcap-37 and one normal cell line NIH3T3 were obtained from Cell Bank of Type Culture Collection of Chinese Academy of Sciences (Shanghai, China). NIH3T3 was routinely maintained in a DMEM medium, while all the other cell lines were cultured in a 1640 medium. All the cells were grown in the medium supplemented with 10% FBS at 37 °C with 5% CO2.
(§3) The growth-inhibitory effects of the test compounds were determined on MGC-803, PC3, Bcap-37, and NIH3T3 cells. All cell types were seeded into 96-well plates at a density of 2 × 10^3 cells/well 100 μL of the proper culture medium and incubated with increasing concentrations of the compounds at 37 °C under cell culturing conditions. An MTT assay (Roche Molecular Biochemicals, 1465-007) was performed 72 h later according to the instructions provided by Roche. The precipitated formazan crystals were dissolved in SDS, and the absorbance was read at 595 nm with a microplate reader (BIO-RAD, model 680), which is directly proportional to the number of living cells in culture. The experiment was performed in triplicate. The percentage cytotoxicity was calculated using the formula. %Cytotoxicity=Controlabs-Blankabs-Testabs-Blankabs/Controlabs-Blankabs×100

[2] = tested on: MGC-803 cells; assay: Flow cytometry, Annexin V/PI double staining; type: cell-based, human; conditions: for apoptosis ratio: MGC-803 cells, 10 μM, 24 h
Description: In addition, the apoptosis ratios induced by compound 5f in MGC-803 cells were determined by flow cytometry, using Annexin V/PI double staining. Flow cytometry was performed on the total cell population (including both adherent and detached cells) and apoptosis detection was carried out as mentioned above. This double staining procedure discriminated necrotic cells (Q1, Annexin^−/PI^+), late apoptotic cells (Q2, Annexin^+/PI^+), intact cells (Q3, Annexin^−/PI^−) and early apoptotic cells (Q4, Annexin^+/PI^−). […] For the positive control HCPT, the apoptosis ratio was only 22.3% after 24 h of treatment at a concentration of 10 μM.
To further quantitative analysis of apoptosis, the cells were washed with PBS, stained with annexinV-FITC and propidium iodide (PI) using the AnnexinV-FITC kit (KeyGEN BioTECH). The cells were then subjected to flow cytometry according to manufacturer’s instructions and the stained cells were analyzed by FACS can flow cytometer (Becton–Dickinson, CA, USA).

[3] = tested on: normal cell line NIH3T3 (mouse embryo fibroblast cell line); assay: MTT assay, NIH3T3 normal cells; type: cell-based; conditions: 72 h, read-out: Inhibition rates against different cells (%) NIH3T3
Description: as §1, §2, §3

[4] = tested on: human gastric cancer cell line MGC-803; assay: MTT assay, MGC-803 cells; type: cell-based
Description: as §1, §2, §3

[5] = tested on: MGC-803 cells; assay: TUNEL assay; type: cell-based, human; conditions: 5 μM, 5f 6, 12, and 18 h, HCPT 18 h
Description: To further verify AO/EB and Hoechst 33,258 staining results, TUNEL assay was also carried out. TUNEL (Terminal deoxynucleotidyl Transferase Biotin-dUTP Nick End Labeling) is a very popular assay for identifying apoptotic cells. The assay identifies apoptotic cells in situ by using terminal deoxynucleotidyl transferase (TdT) to transfer biotin-dUTP to these strand breaks of cleaved DNA. The biotin-labeled cleavage sites are then detected by reaction with HRP conjugated streptavidin and visualized by DAB showing brown color [24]. MGC-803 cells treated with compound 5f at 5 μM for 6, 12, and 18 h were stained with TUNEL, with HCPT as positive control at 5 μM for 18 h. […] We further concluded that compound 5f induced apoptosis against MGC-803.

[6] = tested on: human prostate cancer cell line PC3; assay: MTT assay, PC3 cells; type: cell-based
Description: as §1, §2, §3

[7] = tested on: MGC-803 cells; assay: AO/EB staining for apoptosis; type: cell-based, human; conditions: 12 h, 5f at 1, 5, 10 μM, HCPT at 10 μM
Description: It is well known that AO can pass through cell membranes, but EB cannot. Under the fluorescence microscope, living cells appear green. Necrotic cells stain red but have a nuclear morphology resembling that of viable cells. Apoptotic cells appear green, and morphological changes such as cell blebbing and formation of apoptotic bodies will be observed.
Representative images of the cells treated with 10 μM of HCPT (used as positive control) and 1, 5, 10 μM of compound 5f for 12 h are shown in Fig. 2a.
(§4) Cells were seeded in 6-well culture plates at a density of 5 × 10^4 cells/mL in 0.6 mL of medium and allowed to adhere to the plates overnight. The cells were incubated with different concentrations of compounds or vehicle solution (0.1% DMSO) in a medium containing 10% FBS for 12 h. After the treatment, the cover slip with monolayer cells was inverted on the glass slide with 20 μL of AO/EB stain (100 μg/mL), and finally analyzed for morphological characteristics of cell apoptosis under a fluorescence microscope (Olympus Co., Japan).

[8] = tested on: MGC-803 cells; assay: Hoechst 33,258 staining for apoptosis; type: cell-based, human; conditions: MGC-803 cells, 1, 5, and 10 μM, 12 h
Description: Membrane-permeable Hoechst 33,258 was a blue fluorescent dye and stained the cell nucleus. […] MGC-803 cells treated with compound 5f at concentrations of 1, 5, and 10 μM for 12 h were stained with Hoechst 33,258, with HCPT as positive control at 10 μM for 12 h. The results are illustrated in Fig. 2b.
as §4, with “cells were fixed” for “cover slip”, “4% paraformaldehyde for 10 min, followed by incubation” for “monolayer cells was inverted on the glass slide”, “Hoechst 33,258 staining solution (Beyotime) for 5 min” for “20 μL of AO/EB stain (100 μg/mL),”

Row | IC50 ([1]; Bcap37, 72 h after treatment) | IC50 ([4]; 72 h after treatment) | IC50 ([6]; PC-3, 72 h after treatment) | SMILES | inhibition at 10 µM ([1]; Bcap37, 10 μM, 72 h, read-out: Inhibition rates against different cells (%) Bcap-37) | apoptosis of MGC-803 cells over time ([2]; 10 μM for 6, 12, and 24 h) | apoptosis ratio [2] | inhibition at 10 µM [3] | inhibition at 10 µM ([4]; 10 μM, 72 h, read-out: Inhibition rates against different cells (%) MGC-803) | TUNEL staining [5] | inhibition at 10 µM ([6]; PC-3, 10 μM, 72 h, read-out: Inhibition rates against different cells (%) PC3) | AO/EB staining, apoptotic morphology [7] | Hoechst 33,258 staining, apoptotic morphology [8]
1 | 4.98 ± 0.39 µM | 0.85 ± 0.43 µM | 1.37 ± 0.22 µM | Cc1ccc2ncnc(Oc3ccccc3/C=C/C(=O)/C=C/c3c(Cl)cccc3Cl)c2c1 [Compound 5f, (1E,4E)-1-(2,6-dichlorophenyl)-5-(2-((6-methylquinazolin-4-yl)oxy)phenyl)penta-1,4-dien-3-one] | 76.5 ± 1.9% | gradually increased in a time-dependent manner | 26.4% | 21.5 ± 2.7% | 90.7 ± 0.6% | appeared as brown precipitate | 93 ± 1.8% | apoptotic cells with typical apoptotic features | exhibited strong blue fluorescence and revealed typical apoptotic morphology
2 | – | – | – | CC[C@@]1(O)C(=O)OCc2c1cc1n(c2=O)Cc2cc3cc(O)ccc3nc2-1 [HCPT, 10-hydroxyl camptothecine, reference compound] | – | – | 22.3% | – | – | appeared as brown precipitate | – | apoptotic cells with typical apoptotic features | –
